Experimental data published in patent US20090270379A1, “QUINOLONE DERIVATIVES USEFUL AS ANTIBACTERIAL AGENTS” (priority 2008, published 2009).
In brackets after ≈: the same amount, converted by molar mass.

Assays:
Format in all cases: cell-based
[1] = tested on: Staphylococcus aureus OC4172; assay: In vitro antibacterial activity (MIC), microdilution broth method, strain A; settings: cation adjusted Mueller-Hinton broth, 35° C., 16-20 hours
Method: (§1) Minimal inhibitory concentration (MIC) is an indicator of in vitro antibacterial activity. […] The in vitro antimicrobial activity of representative compounds of the present invention was determined by the microdilution broth method following the test method from the National Committee for Clinical Laboratory Standards (NCCLS). This method is described in the NCCLS Document M7-A4, Vol. 17, No. 2, “Methods for Dilution Antimicrobial Susceptibility Test for Bacteria that Grow Aerobically—Fourth Edition”, which is incorporated herein by reference.
(§2) In this method two-fold serial dilutions of drug in cation adjusted Mueller-Hinton broth were added to wells in microdilution trays. The test organisms were prepared by adjusting the turbidity of actively growing broth cultures so that the final concentration of test organism after it is added to the wells was approximately 5×10^4 CFU/well. Following inoculation of the microdilution trays, the trays were incubated at 35° C. for 16-20 hours and then read. The amount of growth in the wells containing the test compound was compared with the amount of growth in the growth-control wells (no test compound) used in each tray.
(§3) Representative compounds of the present invention were tested against a variety of pathogenic bacteria with results as listed in Table 3, below.

[2] = tested on: strain B, fluoroquinolone-resistant clinical isolate of Streptococcus pneumoniae; assay: In vitro antibacterial activity (MIC), microdilution broth method, strain B; settings: read-out: MIC (μg/mL) B
Method: as §1, §2, §3

[3] = tested on: strain C, fluoroquinolone-resistant clinical isolate of Streptococcus pneumoniae; assay: In vitro antibacterial activity (MIC), microdilution broth method, strain C; settings: read-out: MIC (μg/mL) C
Method: as §1, §2, §3

[4] = tested on: strain D, fluoroquinolone-resistant clinical isolate of Streptococcus pneumoniae; assay: In vitro antibacterial activity (MIC), microdilution broth method, strain D; settings: read-out: MIC (μg/mL) D
Method: as §1, §2, §3

[5] = tested on: Streptococcus pneumoniae ATCC 49619; assay: In vitro antibacterial activity (MIC), microdilution broth method, strain E; settings: ATCC49619, 35° C., 16-20 hours
Method: as §1, §2, §3

`C[C@@H]1NCCn2cc(-c3cc4c(cc3F)c(=O)c(C(=O)O)cn4C3CC3)cc21` [Compound 21, 1-Cyclopropyl-6-fluoro-7-(1S-methyl-1,2,3,4-tetrahydro-pyrrolo[1,2-a]pyrazin-7-yl)-4-oxo-1,4-dihydro-quinoline-3-carboxylic acid] was tested, and the MIC [1] was 0.25 µg/mL (≈ 0.655 µM), the MIC [2] was 4 µg/mL (≈ 10.5 µM) and the MIC [3] was 16 µg/mL (≈ 41.9 µM). It also gave an MIC [4] of 16 µg/mL (≈ 41.9 µM) and an MIC [5] of 1 µg/mL (≈ 2.62 µM).
For `C[C@H]1NCCn2cc(-c3cc4c(cc3F)c(=O)c(C(=O)O)cn4C3CC3)cc21` [Compound 22, 1-Cyclopropyl-6-fluoro-7-(1R-methyl-1,2,3,4-tetrahydro-pyrrolo[1,2-a]pyrazin-7-yl)-4-oxo-1,4-dihydro-quinoline-3-carboxylic acid], the MIC [1] was 0.25 µg/mL (≈ 0.655 µM), the MIC [2] was 4 µg/mL (≈ 10.5 µM) and the MIC [3] was 16 µg/mL (≈ 41.9 µM). It also gave an MIC [4] greater than 16 µg/mL and an MIC [5] of 1 µg/mL (≈ 2.62 µM).
`C[C@H]1Cn2cc(-c3c(F)cc4c(=O)c(C(=O)O)cn5c4c3OC[C@@H]5C)cc2CN1` [Compound 23, 8-Fluoro-3S-methyl-9-(3S-methyl-1,2,3,4-tetrahydro-pyrrolo[1,2-a]pyrazin-7-yl)-6-oxo-2,3-dihydro-6H-1-oxa-3a-aza-phenalene-5-carboxylic acid] showed an MIC [1] of 0.25 µg/mL (≈ 0.629 µM), an MIC [2] of 4 µg/mL (≈ 10.1 µM) and an MIC [3] of 8 µg/mL (≈ 20.1 µM). The MIC [4] was 16 µg/mL (≈ 40.3 µM) and the MIC [5] was 1 µg/mL (≈ 2.52 µM).
With `C[C@@H]1NCCn2cc(-c3c(F)cc4c(=O)c(C(=O)O)cn5c4c3OC[C@@H]5C)cc21` [Compound 24, 8-Fluoro-3S-methyl-9-(1S-methyl-1,2,3,4-tetrahydro-pyrrolo[1,2-a]pyrazin-7-yl)-6-oxo-2,3-dihydro-6H-1-oxa-3a-aza-phenalene-5-carboxylic acid] the MIC [1] was 0.25 µg/mL (≈ 0.629 µM), the MIC [2] was 4 µg/mL (≈ 10.1 µM) and the MIC [3] was 8 µg/mL (≈ 20.1 µM). It also gave an MIC [4] of 16 µg/mL (≈ 40.3 µM) and an MIC [5] of 1 µg/mL (≈ 2.52 µM).
With `C[C@H]1Cn2cc(-c3nc4c(cc3F)c(=O)c(C(=O)O)cn4C3CC3)cc2CN1` [Compound 25, 1-Cyclopropyl-6-fluoro-7-(3S-methyl-1,2,3,4-tetrahydro-pyrrolo[1,2-a]pyrazin-7-yl)-4-oxo-1,4-dihydro-[1,8]naphthyridine-3-carboxylic acid] the MIC [1] was 0.06 µg/mL (≈ 0.157 µM), the MIC [2] was 2 µg/mL (≈ 5.23 µM) and the MIC [3] was 8 µg/mL (≈ 20.9 µM). It also gave an MIC [4] of 8 µg/mL (≈ 20.9 µM) and an MIC [5] of 0.5 µg/mL (≈ 1.31 µM).
In the case of `C[C@@H]1NCCn2cc(-c3nc4c(cc3F)c(=O)c(C(=O)O)cn4C3CC3)cc21` [Compound 26, 1-Cyclopropyl-6-fluoro-7-(1S-methyl-1,2,3,4-tetrahydro-pyrrolo[1,2-a]pyrazin-7-yl)-4-oxo-1,4-dihydro-[1,8]naphthyridine-3-carboxylic acid], the MIC [1] is reported as 0.5 µg/mL (≈ 1.31 µM), the MIC [2] is reported as 8 µg/mL (≈ 20.9 µM) and the MIC [3] is reported as 8 µg/mL (≈ 20.9 µM). It also gave an MIC [4] of 16 µg/mL (≈ 41.8 µM) and an MIC [5] of 1 µg/mL (≈ 2.62 µM).
Work on `C[C@H]1Cn2cc(-c3nc4c(cc3F)c(=O)c(C(=O)O)cn4-c3ccc(F)cc3F)cc2CN1` [Compound 27, 1-(2,4-Difluoro-phenyl)-6-fluoro-7-(3S-methyl-1,2,3,4-tetrahydro-pyrrolo[1,2-a]pyrazin-7-yl)-4-oxo-1,4-dihydro-[1,8]naphthyridine-3-carboxylic acid] yielded an MIC [1] of 0.12 µg/mL (≈ 0.264 µM), an MIC [2] of 16 µg/mL (≈ 35.2 µM) and an MIC [3] of 16 µg/mL (≈ 35.2 µM). It also gave an MIC [4] greater than 16 µg/mL and an MIC [5] of 1 µg/mL (≈ 2.2 µM).
`C[C@@H]1NCCn2cc(-c3nc4c(cc3F)c(=O)c(C(=O)O)cn4-c3ccc(F)cc3F)cc21` [Compound 28, 1-(2,4-Difluoro-phenyl)-6-fluoro-7-(1S-methyl-1,2,3,4-tetrahydro-pyrrolo[1,2-a]pyrazin-7-yl)-4-oxo-1,4-dihydro-[1,8]naphthyridine-3-carboxylic acid] was tested, and the MIC [1] was 1 µg/mL (≈ 2.2 µM), the MIC [2] was 16 µg/mL (≈ 35.2 µM) and the MIC [3] was greater than 16 µg/mL. It also gave an MIC [4] greater than 16 µg/mL and an MIC [5] of 4 µg/mL (≈ 8.8 µM).
In the case of `C[C@@H]1NCCn2cc(-c3c(F)cc4c(=O)c(C(=O)O)cn(C5CC5)c4c3OC(F)F)cc21` [Compound 29, 1-Cyclopropyl-8-difluoromethoxy-6-fluoro-7-(1S-methyl-1,2,3,4-tetrahydro-pyrrolo[1,2-a]pyrazin-7-yl)-4-oxo-1,4-dihydro-quinoline-3-carboxylic acid], the MIC [1] is reported as 0.25 µg/mL (≈ 0.559 µM), the MIC [2] is reported as 1 µg/mL (≈ 2.24 µM) and the MIC [3] is reported as 8 µg/mL (≈ 17.9 µM). The MIC [4] was 16 µg/mL (≈ 35.8 µM) and the MIC [5] was 2 µg/mL (≈ 4.47 µM).
For `O=C(O)c1cn(-c2ccc(F)cc2F)c2nc(-c3cc4n(c3)CCN(Cc3ccccc3)C4)c(F)cc2c1=O` [Compound 30, 7-(2-Benzyl-1,2,3,4-tetrahydro-pyrrolo[1,2-a]pyrazin-7-yl)-1-(2,4-difluoro-phenyl)-6-fluoro-4-oxo-1,4-dihydro-[1,8]naphthyridine-3-carboxylic acid], the MIC [1] was 2 µg/mL (≈ 3.77 µM), the MIC [2] was 8 µg/mL (≈ 15.1 µM) and the MIC [3] was 8 µg/mL (≈ 15.1 µM). It also gave an MIC [4] of 16 µg/mL (≈ 30.2 µM) and an MIC [5] of 8 µg/mL (≈ 15.1 µM).
For `COc1c(-c2cc3n(c2)CCN(Cc2ccccc2)C3)c(F)cc2c(=O)c(C(=O)O)cn(C3CC3)c12` [Compound 31, 7-(2-Benzyl-1,2,3,4-tetrahydro-pyrrolo[1,2-a]pyrazin-7-yl)-1-cyclopropyl-6-fluoro-8-methoxy-4-oxo-1,4-dihydro-quinoline-3-carboxylic acid], the MIC [1] was 0.25 µg/mL (≈ 0.513 µM), the MIC [2] was 8 µg/mL (≈ 16.4 µM) and the MIC [3] was greater than 16 µg/mL. It also gave an MIC [4] greater than 16 µg/mL and an MIC [5] of 2 µg/mL (≈ 4.1 µM).
`COc1c(C2=C[C@H]3CNCCN3C2)c(F)cc2c(=O)c(C(=O)O)cn(C3CC3)c12` [Compound 32, 1-Cyclopropyl-6-fluoro-7-(1,2,3,4,6,8a-hexahydro-pyrrolo[1,2S-a]pyrazin-7-yl)-8-methoxy-4-oxo-1,4-dihydro-quinoline-3-carboxylic acid] showed an MIC [1] of 0.25 µg/mL (≈ 0.626 µM), an MIC [2] of 16 µg/mL (≈ 40.1 µM) and an MIC [3] greater than 16 µg/mL. It also gave an MIC [4] of 16 µg/mL (≈ 40.1 µM) and an MIC [5] of 2 µg/mL (≈ 5.01 µM).
With `C[C@H]1COc2c(C3=C[C@H]4CNCCN4C3)c(F)cc3c(=O)c(C(=O)O)cn1c23` [Compound 33, 8-Fluoro-9-(1,2,3,4,6,8a-hexahydro-pyrrolo[12-a]pyrazin-7-yl)-3S-methyl-6-oxo-2,3-dihydro-6H-1-oxa-3a-aza-phenalene-5-carboxylic acid] the MIC [1] was 0.25 µg/mL (≈ 0.649 µM), the MIC [2] was greater than 16 µg/mL and the MIC [3] was greater than 16 µg/mL. The MIC [4] was greater than 16 µg/mL and the MIC [5] was 2 µg/mL (≈ 5.19 µM).
With `COc1c(-c2cc3n(c2)CCNC3)c(F)cc2c(=O)c(C(=O)O)cn(C3CC3)c12` [Compound 34, 1-Cyclopropyl-6-fluoro-8-methoxy-4-oxo-7-(1,2,3,4-tetrahydro-pyrrolo[1,2-a]pyrazin-7-yl)-1,4-dihydro-quinoline-3-carboxylic acid] the MIC [1] was 0.03 µg/mL (≈ 0.0755 µM), the MIC [2] was 1 µg/mL (≈ 2.52 µM) and the MIC [3] was 1 µg/mL (≈ 2.52 µM). For the same molecule, the MIC [4] was 1 µg/mL (≈ 2.52 µM) and the MIC [5] was 0.25 µg/mL (≈ 0.629 µM).
Work on `C[C@H]1COc2c(-c3cc4n(c3)CCNC4)c(F)cc3c(=O)c(C(=O)O)cn1c23` [Compound 35, 8-Fluoro-3S-methyl-6-oxo-9-(1,2,3,4-tetrahydro-pyrrolo[1,2-a]pyrazin-7-yl)-2,3-dihydro-6H-1-oxa-3a-aza-phenalene-5-carboxylic acid] yielded an MIC [1] of 0.5 µg/mL (≈ 1.3 µM), an MIC [2] greater than 16 µg/mL and an MIC [3] greater than 16 µg/mL. The MIC [4] was greater than 16 µg/mL and the MIC [5] was 2 µg/mL (≈ 5.22 µM).
